Measured values published in BigSolDB 2.1.

C#C[C@]1(O)C=C[C@H]2[C@@H]3CCC4=CC(=O)CC[C@@H]4[C@H]3CC[C@@]21CC
solubility (mole fraction)
Details	283.15 K	288.15 K	293.15 K	298.15 K	303.15 K	308.15 K	313.15 K	318.15 K	323.15 K
in 2-butanone	0.00956	0.0114	0.0134	0.0159	0.0188	0.0221	0.0258	0.0302	0.0352
in acetone	0.00379	0.00499	0.00654	0.00862	0.0113	0.0147	0.0189	0.024	0.0302
in acetonitrile	0.00262	0.00306	0.00358	0.00418	0.00487	0.00566	0.00655	0.00754	0.00868
in ethanol	0.00314	0.00387	0.00473	0.00577	0.00701	0.0085	0.0102	0.0123	0.0147
in ethyl acetate	0.0146	0.0161	0.018	0.0194	0.0211	0.0228	0.0247	0.0264	0.0282
in isopropanol	0.00155	0.00199	0.0026	0.00328	0.00413	0.00519	0.00648	0.00809	0.0101
in isopropyl acetate	0.0174	0.0213	0.0259	0.031	0.0371	0.044	0.052	0.061	0.0711
in methanol	0.00457	0.0055	0.00655	0.00777	0.00917	0.0108	0.0125	0.0145	0.0168
in n-butanol	0.00395	0.00465	0.00549	0.00642	0.0075	0.00875	0.0102	0.0118	0.0136
in n-propanol	0.00376	0.00461	0.0056	0.00678	0.00817	0.00979	0.0117	0.014	0.0166
in water	6.83e-06	7.69e-06	8.93e-06	1.06e-05	1.23e-05	1.42e-05	1.62e-05	1.87e-05	2.16e-05
